Values quoted from earlier work as cited in US20250186347A1 (priority 2025, published 2025).

System: E. faecalis ampicillin-resistant strains
Conditions: reports

MIC: 4 to 8 mg/L
Compound: CC1(C)S[C@@H]2[C@H](NC(=O)[C@H](N)c3ccccc3)C(=O)N2[C@H]1C(=O)O [ampicillin]
